Results from US8877206B2, “Stimulation of an immune response by cationic lipids” (PDS Biotechnology Corporation, priority 2007, dated 2014).
Like-named read-outs stand apart in the source and are kept apart here.

Legend:
[1] = test system: DC2.4 dendritic cells; settings: cited from earlier work; for Potency to stimulate expression of CD 80 vs lipids with longer or saturated acyl chains: ethyl phosphocholine head group lipids, FIG. 14B; for Expression of CD80/CD86: FIG. 14A, disclosed in U.S. Pat. No. 7,303,881
[2] = test system: BMDC; assay: CCL2 release from BMDC (ELISA); format: cell-based, C57BL/6 mice
[3] = test system: murine bone marrow derived dendritic cells (BMDC); settings: Vangesseri et al 2006; cited from earlier work
[4] = test system: BMDC; assay: RT-PCR of chemokine mRNA in BMDC; format: cell-based, mouse; settings: 50 μM liposomes for 16 h; FIG. 15B
Procedure: Total RNA was isolated from BMDC by Rneasy Mini Kit from Qiagen according to the manufacturer's instruction. Following digestion with Dnase for 30 min at 37° C., the total RNA concentration was determined by spectrophotometry. Primer pairs for mouse CCL2, CCL3, CCL4 and β-actin (forward primer 5′-[…]-3′ [SEQ. ID. NO. 3] and reverse primer 5′-[…]-3′ [SEQ. ID. NO. 4] for CCL2; forward primer 5′-[…]-3′ [SEQ. ID. NO. 5] and reverse primer 5′-[…]-3′ [SEQ. ID. NO. 6] for CCL3; forward primer 5′-[…]-3′ [SEQ. ID. NO. 7] and reverse primer 5′-[…]-3′ [SEQ. ID. NO. 8] and reverse primer 5′-[…]-3′ [SEQ. ID. NO. 9] for β-actin [Wang H., et al., Potential involvement of monocyte chemoattractant protein (MCP)-1/CCL2 in IL-4-mediated tumor immunity through inducing dendritic cell migration into the draining lymph nodes, Int Immunopharmacol 3:627-42, (2003)] were synthesized by IDT technology. RT-PCR was performed using the one-step RT-PCR kit (commercially available from Invitrogen of Carlsbad, Calif.) where reverse transcription and DNA amplification occur in the same reaction. Briefly, 1 μg of total RNA was used as a template in a reaction that included the appropriate primers in the presence of both reverse transcriptase and Taq polymerase. The mixture was incubated at 45° C. for 30 min and cycled 25 times at 94° C. for 30 s, 55° C. for 30 s, and 72° C. for 2 min. […]

[5] = test system: bone marrow derived dendritic cells (BMDC); format: cell-based, mouse
[6] = Western blot of ERK and p38 activation in BMDC; format: cell-based, mouse
Procedure: (§1) BMDC cell lysate was collected after different treatments and total cellular protein was resolved on polyacrylamide/SDS gels and then transferred to polyvinylidene difluoride membranes. The membranes were blocked with 5% nonfat milk in Tris-buffered saline for 1 h and then incubated from 1 h to overnight with primary antibody. After washing the membranes with Tris-buffered saline three times, the membranes were incubated horseradish peroxidase conjugated secondary antibody for 1 h. The peroxidase activity associated with the protein bands was detected by enhanced chemiluminescence using ECL plus (Amershan International) followed by autoradiography.

[7] = test system: ERK; assay: Western blot of ERK and p38 activation in BMDC; format: cell-based, mouse; settings: for Effect on DOTAP-induced ERK phosphorylation: FIG. 19C
Procedure: as §1

[8] = test system: TC-1 tumor; assay: TC-1 HPV-positive tumor growth in treated mice; format: in vivo, C57BL/6 mice; settings: 100 nmole dose, without E7 peptide
[9] = test system: DC2.4 cells; assay: Affymetrix microarray of DC2.4 cells treated with DOTAP liposomes; format: cell-based, mouse
[10] = test system: draining lymph node cells; assay: Uptake of NBD-DOTAP and dendritic cell activation/migration to the draining lymph node; format: in vivo, mice
Procedure: Naïve mice (n=4-6) were injected with PBS control (FIGS. 7 A, C and E) or DOTAP/E7 containing 100 nmols total lipid with 0.5% 1-Oleoyl-2-[6-[(7-nitro-2-1,3-benzoxadiazol-4-yl)amino]hexanoyl]-3-trimethylammonium propane] (“NBD-DOTAP”) (FIGS. 7 B, D, and F). At 4 h after the injection, draining lymph node cells were prepared and stained with appropriate antibodies to surface markers. The co-expression of NBD and CD11c (FIGS. 7 A and B) or CD86 (FIGS. 7 C and D) were analyzed within total lymph node cells whereas the co-expression of NBD and CD8 (FIGS. 7 E and F) were gated and analyzed within CD3^+ population. The numbers represented the percentages of cells in the quadrants. Draining lymph node cells were harvested and analyzed by flow cytometry at different time points post injection. The numbers of CD11c^+ cells among total lymph node cells increased by more than 2.5-fold compared to untreated mice 4 h after NBD-DOTAP/E7 injection (FIGS. 7 A and B). […] NBD uptake by other cell types such as T lymphocytes was also investigated by costaining with anti-CD3, CD4 and CD8 antibodies.

[11] = BMDC stimulated 20 h at 37° C., supernatant ELISA, FIG. 1

CCCCCCCCCCCC(=O)OC[C@H](COP(=O)(OCC)OCC[N+](C)(C)C)OC(=O)CCCCCCCCCCC (stereo partly drawn) [DLEPC, 1,2-dilauroyl-sn-glycero-3-ethylphosphocholine]
Potency to stimulate expression of CD 80 vs lipids with longer or saturated acyl chains [1]: more potent

CCCCCCCCCCCCCC(=O)OCC(COP(=O)(OCC)OCC[N+](C)(C)C)OC(=O)CCCCCCCCCCCCC (stereo not drawn) [DMEPC, 1,2-dimyristoyl-sn-glycero-3-ethylphosphocholine]
Potency to stimulate expression of CD 80 vs lipids with longer or saturated acyl chains [1]: more potent

CCCCCCCCCCCCCCOC(=O)CC[C@H](NC(=O)[C@@H](N)CCCCN)C(=O)OCCCCCCCCCCCCCC [DMKD, O,O′-dimyristyl-N-lysyl-glutamate]
Expression of CD80/CD86 [1]: strongly stimulated

CCCCCCCCCCCCCCOC(=O)C[C@H](NC(=O)[C@@H](N)CCCCN)C(=O)OCCCCCCCCCCCCCC [DMKE, O,O′-dimyristyl-N-lysyl aspartate]
Expression of CD80/CD86 [1]: strongly stimulated

CCCCCCCC/C=C\CCCCCCCC(=O)OCC(CN(C)C)OC(=O)CCCCCCC/C=C\CCCCCCCC (stereo not drawn) [DODAP, dioleoyl dimethylaminopropane]
MCP-1/CCL2 release from BMDC by liposomes [2]: did not induce the activity

CCCCCCCC/C=C\CCCCCCCC(=O)OC[C@@H](COP(=O)(OCC)OCC[N+](C)(C)C)OC(=O)CCCCCCC/C=C\CCCCCCCC (stereo partly drawn) [DOEPC, 1,2-dioleoyl-sn-glycero-3-ethylphosphocholine]
Potency to stimulate expression of CD 80 vs lipids with longer or saturated acyl chains [1]: more potent
Expression of co-stimulatory molecules CD80 and CD86 [3]: activated for the expression of the co-stimulatory molecules
CCL2 and CCL4 mRNA (RT-PCR) [4]: upregulated
MCP-1/CCL2 release from BMDC by liposomes [2]: induced the MCP-1/CCL2 release

CCCCCCCC/C=C\CCCCCCCC(=O)OC[C@H](CO)OC(=O)CCCCCCC/C=C\CCCCCCCC [DOG]
MCP-1/CCL2 release from BMDC by liposomes ([2]; FIG. 16): did not

CCCCCCCC/C=C\CCCCCCCC(=O)OC[C@H](COP(=O)([O-])OCC[N+](C)(C)C)OC(=O)CCCCCCC/C=C\CCCCCCCC [DOPC, dioleoyl phosphatidylcholine]
MCP-1/CCL2 release from BMDC by liposomes [2]: did not

CCCCCCCC/C=C\CCCCCCCC(=O)OC[C@H](COP(=O)(O)OCC(O)CO)OC(=O)CCCCCCC/C=C\CCCCCCCC (stereo partly drawn) [DOPG]
MCP-1/CCL2 release from BMDC by liposomes ([2]; FIG. 16): did not

CCCCCCCC/C=C\CCCCCCCC(=O)OC[C@H](COP(=O)(O)OC[C@H](N)C(=O)O)OC(=O)CCCCCCC/C=C\CCCCCCCC [DOPS]
MCP-1/CCL2 release from BMDC by liposomes [2]: did not

CCCCCCCC/C=C\CCCCCCCC(=O)OCC(C[N+](C)(C)C)OC(=O)CCCCCCC/C=C\CCCCCCCC (stereo not drawn) [DOTAP, 1,2-dioleoyl-3-trimethylammonium propane]
IL-10 induction [5]: no induction of IL-10
IL-12 production [5, 11]: production increased in response to DOTAP concentration
TNF-α production [5, 11]: did not induce significant levels
Phosphorylation of IκB and subsequent degradation [6]: no phosphorylation of IκB
p38 activation [6]: slightly activated
Time phospho-ERK stayed at a high level [7]: at least 40 min
Time to ERK phosphorylation [7]: ≤ 10 min
TC-1 tumor growth [8]: did not show significant inhibition of tumor growth
Expression of co-stimulatory molecules CD80 and CD86 [3]: activated for the expression of the co-stimulatory molecules
CCL2 and CCL4 mRNA (RT-PCR) [4]: upregulated
CD11c mRNA ([9]; 50 μM DOTAP): induced
IL-1 receptor antagonist (IL1RA) mRNA ([9]; 50 μM DOTAP treatment for 16 h): increased
IL-1 β mRNA ([9]; 50 μM DOTAP treatment for 16 h): decreased
mRNA of chemokines CCL2, CCL3, CCL4 ([9]; 50 μM DOTAP, FIG. 15A): induced overexpression of several chemokines
CCL2 release [2]: induced significant amounts of CCL2
Concentration at which maximum CCL2 induction was reached [2]: 45 to 75 µM
MCP-1/CCL2 release from BMDC by liposomes [2]: induced the MCP-1/CCL2 release

CCCCCCCC/C=C\CCCCCCCC(=O)OCC(C[N+](C)(C)C)OC(=O)CCCCCNc1ccc([N+](=O)[O-])c2nonc12 (stereo not drawn) [NBD-DOTAP]
NBD uptake by CD3+ cells ([10]; FIG. 7E, F): no NBD uptake
Share taken up by dendritic cells ([10]; soon after immunization): ~80%

CC(C)(C)n1nc(-c2ccc(Cl)cc2)c2c(N)ncnc21 [PP2, reference compound]
Effect on DOTAP-induced ERK phosphorylation [7]: no effect
Effect on DOTAP-induced CCL2 production ([2]; pre-incubated 20 min, then 75 μM DOTAP 24 h, PD 20 μM, SB 10 μM, U 10 μM, PTx 200 ng/mL, PP2 10 μM, Wort 200 nM, GF 200 nM, FIG. 18): no inhibitory effect

GF109203X [reference compound]
Effect on DOTAP-induced ERK phosphorylation [7]: no effect

pertussis toxin [reference compound]
Effect on DOTAP-induced ERK phosphorylation [7]: slight inhibitory effect
